The NIST ThermoML archive (doi:10.1016/j.jct.2019.01.006)
Numbers after ± are expanded uncertainties.

Settings: for vapor or sublimation pressure: Transpiration method; for mass density: 101.33 kPa, Liquid, Vibrating tube method

vapor or sublimation pressure (419.15 K, Crystal) [kPa]	vapor or sublimation pressure (421.15 K, Crystal) [kPa]	vapor or sublimation pressure (423.15 K, Crystal) [kPa]	vapor or sublimation pressure (425.15 K, Crystal) [kPa]	vapor or sublimation pressure (427.15 K, Crystal) [kPa]	vapor or sublimation pressure (429.15 K, Crystal) [kPa]	vapor or sublimation pressure (431.15 K, Crystal) [kPa]	vapor or sublimation pressure (433.15 K, Crystal) [kPa]	vapor or sublimation pressure (435.15 K, Crystal) [kPa]	vapor or sublimation pressure (437.15 K, Crystal) [kPa]	vapor or sublimation pressure (439.15 K, Crystal) [kPa]	vapor or sublimation pressure (441.15 K, Crystal) [kPa]	vapor or sublimation pressure (443.15 K, Crystal) [kPa]	Normal melting temperature (Crystal, DTA) [°C]	mass density (293.15 K) [kg/m3]	mass density (298.15 K) [kg/m3]	mass density (303.15 K) [kg/m3]	mass density (308.15 K) [kg/m3]	mass density (313.15 K) [kg/m3]	SMILES
0.000753 ± 0.00012	0.000867 ± 0.00013	0.000966 ± 0.00013	0.001118 ± 0.00013	0.001294 ± 0.00013	0.001475 ± 0.00013	0.001694 ± 0.00014	0.001933 ± 0.00014	0.002207 ± 0.00015	0.002483 ± 0.00016	0.002882 ± 0.00017	0.003179 ± 0.00018	0.003735 ± 0.0002	232.60 ± 0.5						Cc1c(Cl)cccc1Nc1ncccc1C(=O)O [2-(2-methyl-3-chloroanilino)nicotinic acid]
														659.4 ± 4.1	654.8 ± 4.1	650.2 ± 4.1	645.4 ± 4.1	640.7 ± 4.1	CCCCCC [hexane]
														825.1 ± 4	821.7 ± 4	818.3 ± 4	814.8 ± 4	811.4 ± 4	CCCCCCCCO [octan-1-ol]
